# Literature values in US7439256B2, “(Arylamidoaryl) cyanoguanidine compounds” (priority 2004, dated 2008).
# Where a name gives a salt, the structure may show the parent alone.
# Test system: MO7e human leukemia cells
structure (smiles),measurement,setting,value
"Cc1ccc(NC(=O)c2ccc(CN3CCN(C)CC3)cc2)cc1Nc1nccc(-c2cccnc2)n1 [Gleevec, imatinib mesylate]",GM-CSF stimulated growth of MO7e human leukemia cells,GM-CSF stimulated,not affected
same,Kit ligand-stimulated growth of MO7e human leukemia cells,Kit ligand-stimulated,inhibited
same,apoptosis in MO7e human leukemia cells,Kit ligand-stimulated conditions,induces apoptosis
